Reference: patent publication US20150290232A1, “DRUG COMPOSITION FOR TREATING TUMORS AND APPLICATION THEREOF” (priority 2012, published 2015)

Legend:
Assay type in all cases: cell-based
[1] = system: Hep G2 (human hepatoma carcinoma cell); assay: MTT cell viability, human solid tumor cells; settings: 72 h, MTT
Procedure: (§1) Well-growing cells of above were obtained and inoculated into wells of a 96-well cell culture plate at 5000 cells/well. Individual compounds of various concentrations were added, mixed uniformly, and incubated (5% CO2) at 37° C. for 72 hours. Then the cell viability was determined by the MTT method.
(§2) b) Determine the inhibitory effects of TTD in combination with Ada A on the human solid tumor cells. The pretreatment of the cells was the same as in a). The control group was not treated with the compound while administered. […] As to the combination group, two compounds were added together into the same group of wells, with the fmal concentration being the concentration to which the IC50 of the single drugs correspond. After 72 hours of incubation, the MTT method was used for the determination of cell viability. The cell viability of the control group was set to 100% in this experiment, and the TTD, Ada A single drug and combined effects on cell viability (%) were calculated.

[2] = system: Hep2 (laryngeal carcinoma); assay: MTT cell viability, human solid tumor cells; settings: 72 h, MTT
Procedure: as §1, §2

PC-3 (prostate cancer) = assay: MTT cell viability, human solid tumor cells; settings: 72 h, MTT
Procedure: as §1, §2

[3] = system: CNE (nasopharyngeal carcinoma cell); assay: MTT cell viability, human solid tumor cells; settings: CNE, 72 h, MTT
Procedure: as §1, §2

[4] = system: Hela (human cervical cancer cell); assay: MTT cell viability, human solid tumor cells; settings: Hela, 72 h, MTT
Procedure: as §1, §2

[5] = system: SPC-A-1 (human lung adenocarcinoma cell); assay: MTT cell viability, human solid tumor cells; settings: 72 h, MTT
Procedure: as §1, §2

[6] = system: RKO (human colon adenocarcinoma cell); assay: MTT cell viability, human solid tumor cells; settings: RKO, 72 h, MTT
Procedure: as §1, §2

[7] = system: SK-OV-3 (ovarian cancer cell); assay: MTT cell viability, human solid tumor cells; settings: 72 h, MTT
Procedure: as §1, §2

[8] = system: Becap-37 (human breast cancer cell); assay: MTT cell viability, human solid tumor cells; settings: 72 h, MTT
Procedure: as §1, §2

[9] = system: Panc-1 (pancreatic cancer); assay: MTT cell viability, human solid tumor cells; settings: 72 h, MTT
Procedure: as §1, §2

[10] = system: U87-MG (malignant glioma cell); assay: MTT cell viability, human solid tumor cells; settings: U-87 MG, U87-MG, 72 h, MTT
Procedure: as §1, §2

MG63 (osteosarcoma) = assay: MTT cell viability, human solid tumor cells; settings: 72 h, MTT
Procedure: as §1, §2

A549 (human lung cancer) = assay: MTT cell viability, human solid tumor cells; settings: 72 h, MTT
Procedure: as §1, §2

[11] = system: Huh7 (human liver cancer cell); assay: MTT cell viability, human solid tumor cells; settings: 72 h, MTT
Procedure: as §1, §2

[12] = system: MGC-803 (human gastric cancer cell); assay: MTT cell viability, human solid tumor cells; settings: 72 h, MTT
Procedure: as §1, §2

[13] = system: CaES-17 (esophageal cancer cell); assay: MTT cell viability, human solid tumor cells
Procedure: as §1
b) Determine the inhibitory effects of TTD in combination with Ada A on the human solid tumor cells. The pretreatment of the cells was the same as in a). The control group was not treated with the compound while administered. The two single-drug groups were added with respective active component to the concentration under which the IC50 of two compounds in a) achieve. As to the combination group, two compounds were added together into the same group of wells, with the fmal concentration being the concentration to which the IC50 of the single drugs correspond. After 72 hours of incubation, the MTT method was used for the determination of cell viability. The cell viability of the control group was set to 100% in this experiment, and the TTD, Ada A single drug and combined effects on cell viability (%) were calculated.

[14] = system: Jurkat cells (acute lymphoblastic leukemia); assay: MTT cell viability, leukemia cells, TTD and Acla A alone and combined; settings: Homo sapiens, 72 h, MTT
Procedure: (§3) Well-growing leukemia cells were obtained and inoculated into wells of a 96-well cell culture plate at 5000 cells/well. Individual compounds of various concentrations were added, mixed uniformly, and incubated (5% CO2) at 37° C. for 72 hours. Then the cell viability was determined by the MTT method.
(§4) b) Determine the inhibitory effects of TTD in combination with Ada A on leukemia cells in vitro. The pretreatment of the cells was the same as in a). The control group was not treated with the compound while administered. […] After 72 hours of incubation, the MTT method was used for the determination of cell viability. The cell viability of the control group was set to 100% in this experiment, and the TTD, Ada A single drug and combined effects on cell viability (%) were calculated.

[15] = system: k562/ADR leukemia cells (drug-resistant chronic myeloid leukemia); assay: as above; settings: Homo sapiens, k562/ADR, 72 h, MTT
Procedure: as §3, §4

[16] = system: kasumi-1 cells (acute myeloid leukemia M2 type); assay: as above; settings: Homo sapiens, 72 h, MTT
Procedure: as §3, §4

[17] = single compound, read-out: concentration (IC50 value of 72 hours)

## COc1ccc2cc1Oc1ccc(cc1)C[C@H]1c3cc(c(OC)cc3CCN1C)Oc1c(OC)c(OC)cc3c1[C@H](C2)N(C)CC3 [TTD, tetrandrine]
[1]; HepG2, Hep G2, TTD 1.5 μg/mL, control = 100%, read-out: CV (cell viability)
  viability at 1.5 µg/mL: 52.5%
[1]; HepG2, Hep G2, single compound, read-out: concentration (IC50 value of 72 hours)
  IC50: 1.5 µg/mL
[2]; HEp-2, Hep2, TTD 2.59 μg/mL, control = 100%, read-out: CV (cell viability)
  viability at 2.59 µg/mL: 43.8%
[2]; HEp-2, Hep2, single compound, read-out: concentration (IC50 value of 72 hours)
  IC50: 2.59 µg/mL
PC-3 (prostate cancer); PC-3, TTD 4.5 μg/mL, control = 100%, read-out: CV (cell viability)
  viability at 4.5 µg/mL: 47%
PC-3 (prostate cancer); PC-3, single compound, read-out: concentration (IC50 value of 72 hours)
  IC50: 4.5 µg/mL
[3]; TTD 3 μg/mL, control = 100%, read-out: CV (cell viability)
  viability at 3 µg/mL: 51.9%
[3]; [17]
  IC50: 3 µg/mL
[4]; TTD 1.25 μg/mL, control = 100%, read-out: CV (cell viability)
  viability at 1.25 µg/mL: 47%
[4]; [17]
  IC50: 1.25 µg/mL
[5]; SPCA1, SPC-A-1, TTD 3.5 μg/mL, control = 100%, read-out: CV (cell viability)
  viability at 3.5 µg/mL: 52.5%
[5]; SPCA1, SPC-A-1, single compound, read-out: concentration (IC50 value of 72 hours)
  IC50: 3.5 µg/mL
[6]; TTD 1.5 μg/mL, control = 100%, read-out: CV (cell viability)
  viability at 1.5 µg/mL: 45.3%
[6]; [17]
  IC50: 1.5 µg/mL
[7]; SK-OV-3, TTD 5 μg/mL, control = 100%, read-out: CV (cell viability)
  viability at 5 µg/mL: 55.9%
[7]; SK-OV-3, single compound, read-out: concentration (IC50 value of 72 hours)
  IC50: 5 µg/mL
[8]; Becap-37, TTD 3 μg/mL, control = 100%, read-out: CV (cell viability)
  viability at 3 µg/mL: 56.1%
[8]; Becap-37, single compound, read-out: concentration (IC50 value of 72 hours)
  IC50: 3 µg/mL
[9]; Panc-1, TTD 4.67 μg/mL, control = 100%, read-out: CV (cell viability)
  viability at 4.67 µg/mL: 52.3%
[9]; Panc-1, single compound, read-out: concentration (IC50 value of 72 hours)
  IC50: 4.67 µg/mL
[10]; TTD 2.37 μg/mL, control = 100%, read-out: CV (cell viability)
  viability at 2.37 µg/mL: 47.7%
[10]; [17]
  IC50: 2.37 µg/mL
MG63 (osteosarcoma); MG-63, MG63, TTD 2 μg/mL, control = 100%, read-out: CV (cell viability)
  viability at 2 µg/mL: 40.8%
MG63 (osteosarcoma); MG-63, MG63, single compound, read-out: concentration (IC50 value of 72 hours)
  IC50: 2 µg/mL
A549 (human lung cancer); A549, TTD 8.34 μg/mL, control = 100%, read-out: CV (cell viability)
  viability at 8.34 µg/mL: 47.6%
A549 (human lung cancer); A549, single compound, read-out: concentration (IC50 value of 72 hours)
  IC50: 8.34 µg/mL
[11]; Huh-7, Huh7, TTD 3 μg/mL, control = 100%, read-out: CV (cell viability)
  viability at 3 µg/mL: 54%
[11]; Huh-7, Huh7, single compound, read-out: concentration (IC50 value of 72 hours)
  IC50: 3 µg/mL
[12]; MGC-803, TTD 3 μg/mL, control = 100%, read-out: CV (cell viability)
  viability at 3 µg/mL: 50.9%
[12]; MGC-803, single compound, read-out: concentration (IC50 value of 72 hours)
  IC50: 3 µg/mL
[13]; CaEs17, 72 h, read-out: CV (cell viability)
  viability at 3.59 µg/mL: 47.1%
[13]; CaEs17, CaES-17, single compound, 72 h, MTT, read-out: concentration (IC50 value of 72 hours)
  IC50: 3.59 µg/mL
[14]; TTD 1.69 μg/mL, control = 100%, read-out: CV (cell viability)
  viability at 1.69 µg/mL: 52.3%
[14]; [17]
  IC50: 1.69 µg/mL
[15]; TTD 0.6 μg/mL, control = 100%, read-out: CV (cell viability)
  viability at 0.6 µg/mL: 48%
[15]; [17]
  IC50: 0.6 µg/mL
[16]; kasumi-1, TTD 2 μg/mL, control = 100%, read-out: CV (cell viability)
  viability at 2 µg/mL: 51.7%
[16]; kasumi-1, single compound, read-out: concentration (IC50 value of 72 hours)
  IC50: 2 µg/mL
